Data on 3 compounds can be found in patent US12281332B2, “Methods of enhancing development of renal organoids and methods of using the same” (President and Fellows of Harvard College, priority 2017, dated 2025).

Entries after “also recorded” stand apart in the source; their conditions may differ.

Holding throughout (type): cell-based, human
In assay [1] the test system is kidney organoids. The assay is described as follows: Abundance of vasculature in kidney organoids, PECAM1/CD31 immunostaining and Angiotool. Particulars: for effect on vasculature formation / vascular growth (summary of studies): FBS 1.5 to 2%; for effect on the CD31+ population of cells (extent and abundance of vasculature): developing organoids age 11-14 Days, additives in advanced RPMI, static and perfused conditions; for vessel % area: high FSS, endogenous VEGF vs VEGF addition vs VEGF inhibition. On the procedure:
Methods: To determine effects of chemical additives on the developing developing organoids, the vesicles (age 11, 12, 13 and 14 Days) were treated with VEGF additives, GMEC media, PMA additives, antibiotics, or FBS or FCS additives and other components in advanced RPMI media as a base in both static and perfused conditions. The extent and abundance of vasculature was studied using immunostaining.
Confocal Z-stacks of PECAM1 were taken of fixed whole mount organoids, both iPSC and ESC derived, in the various culture conditions. The Z-stacks were taken at the limit of the confocal depth with each sample, roughly […] per sample which represents approximately the same volume per organoid analyzed. Those z-stacks were then flattened using ImageJ to a 2D max intensity projection (as required by the Angiotool for input). The default settings were employed on the Angiotool for analysis and vessel diameters of 4, 7, 10, and 14 were analyzed for each organoid. In all cases, the whole organoid was used for analysis.

The subject of assay [2] is kidney organoids. The assay can be described thus: Association of PECAM1+ vasculature with LTL+ tubules, Imaris analysis. Particulars: for vasculotubular association (percent of vasculature surface area overlapping with LTL+ tubules): 10 days of high flow culture, VEGF 100 ng/mL or VEGF inhibitor in the media. From the text:
Additionally, enhanced PECAM1^+ networks under high FSS associate with tubular structures in both transverse and longitudinal orientations (FIG. 16(d) and FIG. 17). The researchers quantified the association between PECAM1^+ networks and LTL^+tubules using Imaris surface rendering, distance transformation, and masking tools and reveal that under high flow conditions the percent of vascular surface area in contact with tubules is increased nearly 3 fold in comparison to organoids in static culture (FIG. 17(d)).
Confocal Z-stacks of PECAM1 and LTL were taken of fixed whole mount organoids, both iPSC and ESC derived, in the various culture conditions. The Z-stacks were taken at the limit of the confocal depth with each sample, roughly […] per sample which represents approximately the same volume per organoid analyzed. Those z-stacks were then opened in Imaris imaging software. The confocal 3D rendering was turned into a vascular surface and a tubule surface. Then the Imaris surface on surface area contact tool was used to quantify the percent overlap between the vascular and tubular surfaces in 3D, values were reported in FIG. 17(d). In order to assess the average distance the vasculature was away from a tubule, first an Imaris distance transformation was performed on the tubule surface. Then the resulting channel was masked by the vascular surface to create a new masked distance transformation channel. That masked distance transformation channel was opened in Fiji (ImageJ) to retrieve a histogram of all the 3D points, from which we obtained a geometric mean for each sample which is reported in FIG. 17(c).

Assay [3] relates to PODXL+ glomeruli-like compartments of kidney organoids. The assay is described as follows: Vascular invasion of PODXL+ podocyte clusters in kidney organoids on chip, confocal imaging. The note with it: high FSS, 10 days on chip; bevacizumab, VEGF 100 ng/mL. From the text:
Glomerular structures of kidney organoids in static culture are largely avascular. Upon animal transplantation, host-derived vascularization of kidney organoids Promotes glomerular vascularization. To determine whether FSS-induced vascularization of organoids in vitro extends to glomerular compartments, PODXL^+ podocyte clusters invaded by MCAMI^+ PECAM1^+ vascular structures were quantified using confocal imaging, in static and high FSS conditions (FIG. 18A and FIG. 18B). […] Given that there is significant upregulation of VEGF-A expression with high FSS (FIG. 18C), organoids cultured under flow can be used to study the role of VEGF in glomerular vascularization in vitro.
As vessel % area is unchanged between endogenous VEGF, VEGF addition, and VEGF inhibition, the difference in glomerular vascularization cannot be attributed to increased abundance of vasculature alone. Meanwhile, the reduced junctional density and increased average vessel length in unperturbed VEGF conditions may be interpreted as vessels growing towards an endogenous VEGF gradient versus more random sporadic growth in the absence of a gradient. Growing with the endogenous VEGF gradient under high flow conditions may allow vessels to reach glomeruli-like compartments in time to invade rather than wrap Bowman's capsule-like structures. […]

In the case of “vascular endothelial growth factor [VEGF]”, in the assay with kidney organoids [1], the “effect on vasculature formation / vascular growth (summary of studies)” value is recorded as “did not help”; the “effect on the CD31+ population of cells (extent and abundance of vasculature)” value is given as “no measureable effects”; the vessel % area entry was “unchanged”. Besides, the “outgrowth of endothelial-like cells” value with kidney organoids [1] (addition of VEGF) is on record as “robust outgrowth of endothelial-like cells”. In addition, in the assay on kidney organoids [1] (culture under FSS, VEGF added in the media), the vascular abundance result was “didn't change”. In addition, the vascular abundance entry in the assay on kidney organoids [1] (static culture, exogenous VEGF) is on record as “did increase”. For the same compound, the “vasculotubular association (percent of vasculature surface area overlapping with LTL+ tubules)” value in the assay on kidney organoids [2] is “decouples these associations and returns values consistent with static culture levels; also recorded: negated”. Moreover, the “average distance in 3D between the vasculature and the tubules” value in the assay with kidney organoids [2] (high flow+VEGF compared with static) is given as “not statistically significantly different”. For the same compound, the “incidence of invasion of PODXL+ glomeruli-like compartments by PECAM1+MCAM+ vascular networks” value in assay [3] is recorded as “significantly reduced”.
Turning to bevacizumab [reference compound], the vessel % area entry with kidney organoids [1] is recorded as “unchanged”. In addition, the “vasculotubular association (percent of vasculature surface area overlapping with LTL+ tubules)” value in the assay on kidney organoids [2] was “decouples these associations and returns values consistent with static culture levels; also recorded: negated”. For the same compound, the “incidence of invasion of PODXL+ glomeruli-like compartments by PECAM1+MCAM+ vascular networks” value in assay [3] is listed as “significantly reduced”.
Take `CCCCCCCCCCCCCC(=O)O[C@@H]1[C@@H](C)[C@@]2(O)[C@@H](C=C(CO)C[C@]3(O)C(=O)C(C)=C[C@@H]23)[C@@H]2C(C)(C)[C@]12OC(C)=O` [PMA, reference compound]: in the assay on kidney organoids [1], the “effect on vasculature formation / vascular growth (summary of studies)” value is “did not help”; the “effect on the CD31+ population of cells (extent and abundance of vasculature)” value is reported as “no measureable effects”.
